Test results reported in US20100298141A1, “SUBSTITUTED PYRIDINE N-OXIDE HERBICIDES” (E. I. DU PONT DE NEMOURS AND COMPANY, priority 2007, published 2010).

Legend:
eastern black nightshade = experiment: Test C pre-/postemergence test; format: in vivo, Solanum ptycanthum; conditions: for Plant response rating, Nightshade: 31 g ai/ha, scale 0 to 100 (0 no effect, 100 complete control)
Outline: (§1)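 Test chemicals were formulated with surfactant in a non-phytotoxic solvent and sprayed both on freshly planted seeds (preemergence) and on 1- to 4-leaf plants of 2–18 cm (postemergence). Flooded-paddy pots received compound directly into 3 cm of standing water, maintained for the test.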

velvetleaf = experiment: Test C pre-/postemergence test; format: in vivo, Abutilon theophrasti; conditions: for Plant response rating, Velvetleaf: 31 g ai/ha, scale 0 to 100 (0 no effect, 100 complete control)
Outline: as §1

barnyardgrass = experiment: Test A pre-/postemergence greenhouse test; format: in vivo, Echinochloa crus-galli; conditions: for Plant response rating, Barnyardgrass: 0 to 100 scale where 0 is no effect and 100 is complete control; for Barnyardgrass plant response rating: 0 to 100 scale
Outline: (§2)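 Sowing in loam/sand; same-day pre (directed soil spray) and post (foliar, 1–2 leaf, 2–10 cm) treatment with surfactant-containing non-phytotoxic solvent formulation; ~10 days in greenhouse; eye-scored injury against untreated plants.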

[1] = system: common (oilseed) sunflower; experiment: Test C pre-/postemergence test; format: in vivo, Helianthus annuus
Outline: as §1

corn [2] = experiment: Test C pre-/postemergence test; format: in vivo, Zea mays; conditions: for Plant response rating, Corn: 31 g ai/ha, scale 0 to 100 (0 no effect, 100 complete control)
Outline: as §1

Surinam grass = experiment: Test C pre-/postemergence test; format: in vivo, Brachiaria decumbens; conditions: for Plant response rating, Surinam Grass: 31 g ai/ha, scale 0 to 100 (0 no effect, 100 complete control)
Outline: as §1

pigweed = experiment: Test C pre-/postemergence test; format: in vivo, Amaranthus retroflexus; conditions: for Plant response rating, Pigweed: 31 g ai/ha, scale 0 to 100 (0 no effect, 100 complete control)
Outline: as §1

johnsongrass = experiment: Test C pre-/postemergence test; format: in vivo, Sorghum halepense; conditions: for Plant response rating, Johnsongrass: 31 g ai/ha, scale 0 to 100 (0 no effect, 100 complete control)
Outline: as §1

corn [3] = experiment: Test A pre-/postemergence greenhouse test; format: in vivo, Zea mays; conditions: for Plant response rating, Corn: 0 to 100 scale where 0 is no effect and 100 is complete control; for Corn plant response rating: 0 to 100 scale
Outline: as §2

crabgrass [4] = experiment: Test A pre-/postemergence greenhouse test; format: in vivo, Digitaria sanguinalis; conditions: for Plant response rating, Crabgrass, Large: 0 to 100 scale where 0 is no effect and 100 is complete control; for Crabgrass, Large plant response rating: 0 to 100 scale
Outline: as §2

crabgrass [5] = experiment: Test C pre-/postemergence test; format: in vivo, Digitaria sanguinalis; conditions: for Plant response rating, Crabgrass, Large: 31 g ai/ha, scale 0 to 100 (0 no effect, 100 complete control)
Outline: as §1

umbrella sedge = experiment: Test C flooded paddy test; format: in vivo, Cyperus difformis; conditions: Flood
Outline: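 Flooded 3 cm over soil; compound into paddy water; depth kept constant. Greenhouse 13–15 d.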

giant foxtail = experiment: Test C pre-/postemergence test; format: in vivo, Setaria faberii; conditions: for Plant response rating, Foxtail, Giant: 31 g ai/ha, scale 0 to 100 (0 no effect, 100 complete control)
Outline: as §1

Italian ryegrass = experiment: Test C pre-/postemergence test; format: in vivo, Lolium multiflorum; conditions: for Plant response rating, Ryegrass, Italian: 31 g ai/ha, scale 0 to 100 (0 no effect, 100 complete control)
Outline: as §1

Goosegrass = experiment: Test C pre-/postemergence test; format: in vivo, Eleusin indica; conditions: for Plant response rating, Goosegrass: 31 g ai/ha, scale 0 to 100 (0 no effect, 100 complete control)
Outline: as §1

wheat = experiment: Test A pre-/postemergence greenhouse test; format: in vivo, Triticum aestivum; conditions: for Plant response rating, Wheat: 0 to 100 scale where 0 is no effect and 100 is complete control; for Wheat plant response rating: 0 to 100 scale
Outline: as §2

morningglory = experiment: Test C pre-/postemergence test; format: in vivo, Ipomoea coccinea; conditions: for Plant response rating, Morningglory: 31 g ai/ha, scale 0 to 100 (0 no effect, 100 complete control)
Outline: as §1

[6] = 62 g ai/ha, Preemergence, scale 0 to 100
[7] = 125 g ai/ha, preemergence, scale 0 (no effect) to 100 (complete control)
[8] = preemergence, 250 g ai/ha, scale 0 (no effect) to 100 (complete control)
[9] = Postemergence, 500 g ai/ha, 0 is no effect, 100 is complete control
[10] = Preemergence, 125 g ai/ha, 0 no effect, 100 complete control
[11] = Preemergence, 500 g ai/ha, 0 no effect, 100 complete control
[12] = 250 g ai/ha, scale 0 to 100, 0 no effect, 100 complete control, 13 to 15 days

CCc1cc[n+]([O-])c(S(=O)(=O)Cc2c(C(F)(F)F)nn(C)c2OC(F)F)c1 [Compound 102]
20: Ryegrass, Italian plant response rating (Italian ryegrass; [8])
70: Plant response rating, Barnyardgrass (barnyardgrass; Postemergence, 125 g ai/ha) | Surinam Grass plant response rating (Surinam grass; [6]) | Surinam Grass plant response rating (Surinam grass; [7]) | Plant response rating, Johnsongrass (johnsongrass; Preemergence) | Plant response rating, Crabgrass, Large (crabgrass [5]; Preemergence) | Plant response rating, Sedge, Umbrella (umbrella sedge; [12]) | Foxtail, Giant plant response rating (giant foxtail; [6])
65: Plant response rating, Surinam Grass (Surinam grass; Preemergence) | Plant response rating, Morningglory (morningglory; Preemergence)
80: Velvetleaf plant response rating (velvetleaf; [7]) | Barnyardgrass plant response rating (barnyardgrass; [9]) | Barnyardgrass plant response rating (barnyardgrass; [10]) | Sunflower plant response rating [1, 8]
90: Nightshade plant response rating (eastern black nightshade; [6]) | Crabgrass, Large plant response rating (crabgrass [4]; [9]) | Crabgrass, Large plant response rating (crabgrass [4]; [10]) | Crabgrass, Large plant response rating (crabgrass [4]; [11])
85: Plant response rating, Nightshade (eastern black nightshade; Preemergence) | Foxtail, Giant plant response rating (giant foxtail; [7]) | Foxtail, Giant plant response rating (giant foxtail; [8]) | Plant response rating, Goosegrass (Goosegrass; Preemergence) | Morningglory plant response rating (morningglory; [6])
60: Sunflower plant response rating [1, 7] | Plant response rating, Pigweed (pigweed; Preemergence) | Plant response rating, Crabgrass, Large (crabgrass [4]; Postemergence, 125 g ai/ha) | Plant response rating, Foxtail, Giant (giant foxtail; Preemergence) | Wheat plant response rating (wheat; [9])
30: Velvetleaf plant response rating (velvetleaf; [6])
50: Corn plant response rating (corn [3]; [9]) | Plant response rating, Wheat (wheat; Postemergence, 125 g ai/ha) | Wheat plant response rating (wheat; [10])
40: Plant response rating, Corn (corn [3]; Postemergence, 125 g ai/ha)
95: Nightshade plant response rating (eastern black nightshade; [7]) | Velvetleaf plant response rating (velvetleaf; [8]) | Surinam Grass plant response rating (Surinam grass; [8]) | Pigweed plant response rating (pigweed; [6]) | Crabgrass, Large plant response rating (crabgrass [5]; [6]) | Crabgrass, Large plant response rating (crabgrass [5]; [7])
100: Barnyardgrass plant response rating (barnyardgrass; [11]) | Pigweed plant response rating (pigweed; [7]) | Pigweed plant response rating (pigweed; [8]) | Johnsongrass plant response rating (johnsongrass; [6]) | Johnsongrass plant response rating (johnsongrass; [7]) | Johnsongrass plant response rating (johnsongrass; [8]) | Crabgrass, Large plant response rating (crabgrass [5]; [8]) | Goosegrass plant response rating (Goosegrass; [7]) | Goosegrass plant response rating (Goosegrass; [8]) | Wheat plant response rating (wheat; [11]) | Morningglory plant response rating (morningglory; [7]) | Morningglory plant response rating (morningglory; [8])
0: Plant response rating, Velvetleaf (velvetleaf; Preemergence) | Sunflower plant response rating [1, 6] | Corn plant response rating (corn [2]; [6]) | Corn plant response rating (corn [2]; [7]) | Plant response rating, Corn (corn [2]; Preemergence) | Corn plant response rating (corn [2]; [8]) | Corn plant response rating (corn [3]; [10]) | Corn plant response rating (corn [3]; [11]) | Plant response rating, Sedge, Umbrella (umbrella sedge; 62 g ai/ha, scale 0 to 100 (0 no effect, 100 complete control)) | Ryegrass, Italian plant response rating (Italian ryegrass; [6]) | Ryegrass, Italian plant response rating (Italian ryegrass; [7]) | Plant response rating, Ryegrass, Italian (Italian ryegrass; Preemergence)
98: Nightshade plant response rating (eastern black nightshade; [8]) | Goosegrass plant response rating (Goosegrass; [6])

Cn1nc(C(F)(F)F)c(C[S+]([O-])c2ccc(F)c[n+]2[O-])c1Cl (centres unmarked) [Compound 54]
55: Plant response rating, Corn (corn [2]; Preemergence) | Plant response rating, Surinam Grass (Surinam grass; Preemergence)
100: Surinam Grass plant response rating (Surinam grass; [7]) | Surinam Grass plant response rating (Surinam grass; [8]) | Pigweed plant response rating (pigweed; [6]) | Pigweed plant response rating (pigweed; [7]) | Pigweed plant response rating (pigweed; [8]) | Johnsongrass plant response rating (johnsongrass; [7]) | Johnsongrass plant response rating (johnsongrass; [8]) | Crabgrass, Large plant response rating (crabgrass [5]; [6]) | Crabgrass, Large plant response rating (crabgrass [5]; [7]) | Crabgrass, Large plant response rating (crabgrass [5]; [8]) | Plant response rating, Sedge, Umbrella (umbrella sedge; [12]) | Foxtail, Giant plant response rating (giant foxtail; [7]) | Foxtail, Giant plant response rating (giant foxtail; [8]) | Goosegrass plant response rating (Goosegrass; [6]) | Goosegrass plant response rating (Goosegrass; [7]) | Goosegrass plant response rating (Goosegrass; [8]) | Morningglory plant response rating (morningglory; [6]) | Morningglory plant response rating (morningglory; [7]) | Plant response rating, Morningglory (morningglory; Preemergence) | Morningglory plant response rating (morningglory; [8])
0: Plant response rating, Nightshade (eastern black nightshade; Preemergence) | Velvetleaf plant response rating (velvetleaf; [6]) | Plant response rating, Velvetleaf (velvetleaf; Preemergence) | Sunflower plant response rating [1, 7] | Plant response rating, Sunflower ([1]; Preemergence, 31 g ai/ha, scale 0 to 100 (0 no effect, 100 complete control)) | Sunflower plant response rating [1, 8] | Plant response rating, Pigweed (pigweed; Preemergence) | Plant response rating, Corn (corn [3]; Postemergence, 125 g ai/ha) | Plant response rating, Sedge, Umbrella (umbrella sedge; 31 g ai/ha, scale 0 to 100 (0 no effect, 100 complete control)) | Plant response rating, Ryegrass, Italian (Italian ryegrass; Preemergence)
60: Corn plant response rating (corn [3]; [9]) | Plant response rating, Sedge, Umbrella (umbrella sedge; 125 g ai/ha, scale 0 to 100, 0 no effect, 100 complete control, 13 to 15 days)
80: Barnyardgrass plant response rating (barnyardgrass; [9]) | Barnyardgrass plant response rating (barnyardgrass; [10]) | Corn plant response rating (corn [2]; [6]) | Crabgrass, Large plant response rating (crabgrass [4]; [9]) | Crabgrass, Large plant response rating (crabgrass [4]; [10])
5: Velvetleaf plant response rating (velvetleaf; [7])
50: Nightshade plant response rating (eastern black nightshade; [6]) | Wheat plant response rating (wheat; [9])
95: Johnsongrass plant response rating (johnsongrass; [6]) | Plant response rating, Goosegrass (Goosegrass; Preemergence)
20: Corn plant response rating (corn [3]; [10]) | Plant response rating, Crabgrass, Large (crabgrass [4]; Postemergence, 125 g ai/ha)
85: Nightshade plant response rating (eastern black nightshade; [7]) | Nightshade plant response rating (eastern black nightshade; [8]) | Velvetleaf plant response rating (velvetleaf; [8]) | Corn plant response rating (corn [2]; [7]) | Plant response rating, Crabgrass, Large (crabgrass [5]; Preemergence) | Plant response rating, Foxtail, Giant (giant foxtail; Preemergence)
45: Ryegrass, Italian plant response rating (Italian ryegrass; [6])
90: Plant response rating, Barnyardgrass (barnyardgrass; Preemergence, 500 g ai/ha) | Surinam Grass plant response rating (Surinam grass; [6]) | Plant response rating, Johnsongrass (johnsongrass; Preemergence) | Plant response rating, Crabgrass, Large (crabgrass [4]; Preemergence, 500 g ai/ha)
98: Corn plant response rating (corn [2]; [8]) | Foxtail, Giant plant response rating (giant foxtail; [6]) | Ryegrass, Italian plant response rating (Italian ryegrass; [8])
70: Plant response rating, Barnyardgrass (barnyardgrass; Postemergence, 125 g ai/ha) | Plant response rating, Corn (corn [3]; Preemergence, 500 g ai/ha) | Ryegrass, Italian plant response rating (Italian ryegrass; [7]) | Plant response rating, Wheat (wheat; Preemergence, 500 g ai/ha)
10: Wheat plant response rating (wheat; [10])
30: Plant response rating, Wheat (wheat; Postemergence, 125 g ai/ha)
